In US9580426B2, “Compounds that expand hematopoietic stem cells” (Novartis AG, priority 2008, dated 2017):

What was measured:
[1] = target: T1, AHR (Rattus norvegicus, UniProt P41738); test: Dioxin induced AHR dependent transcription, rat cells; type: cell-based
T1 construct: had no activity on rat cells; endogenous in cells; host or cells: unnamed rat cells
T1 sequence (P41738 10-853): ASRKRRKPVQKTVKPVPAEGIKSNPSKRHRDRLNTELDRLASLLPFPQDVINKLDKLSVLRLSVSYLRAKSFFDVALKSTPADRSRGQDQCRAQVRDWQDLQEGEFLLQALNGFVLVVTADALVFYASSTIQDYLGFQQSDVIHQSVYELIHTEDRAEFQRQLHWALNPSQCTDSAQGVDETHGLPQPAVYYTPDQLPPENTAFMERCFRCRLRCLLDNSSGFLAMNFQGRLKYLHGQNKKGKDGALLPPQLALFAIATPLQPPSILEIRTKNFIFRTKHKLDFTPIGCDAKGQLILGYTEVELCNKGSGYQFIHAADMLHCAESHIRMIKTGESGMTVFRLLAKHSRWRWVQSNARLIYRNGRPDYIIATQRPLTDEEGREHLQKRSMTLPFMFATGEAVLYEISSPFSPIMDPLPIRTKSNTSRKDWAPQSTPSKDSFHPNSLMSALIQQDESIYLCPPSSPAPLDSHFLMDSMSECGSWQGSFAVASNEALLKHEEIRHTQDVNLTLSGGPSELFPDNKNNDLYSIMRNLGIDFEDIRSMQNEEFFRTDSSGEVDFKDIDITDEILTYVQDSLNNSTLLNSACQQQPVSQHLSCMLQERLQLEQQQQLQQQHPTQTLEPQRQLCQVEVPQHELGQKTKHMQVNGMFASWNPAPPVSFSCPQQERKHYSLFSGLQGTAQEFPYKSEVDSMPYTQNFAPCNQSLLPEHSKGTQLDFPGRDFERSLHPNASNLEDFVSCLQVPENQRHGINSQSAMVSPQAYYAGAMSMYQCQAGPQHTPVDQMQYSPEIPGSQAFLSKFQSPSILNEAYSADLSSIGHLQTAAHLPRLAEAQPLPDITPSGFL
Method: (§1) Further, the ability of Example 1 to block 2,3,7,8-tetrachlorodibenzo-p-dioxin (TCDD, dioxin)-mediated CYP1B1 mRNA expression by qPCR in mPB-derived CD34^+ cells was determined. Treatment with TCDD (3 nM) caused a 4.5-fold increase in the level of CYP1B1 mRNA compared with the vehicle control (0.01% toluene). […] To determine the effects of Example 1 in AHR transcription the ability of Example 1 to inhibit a dioxin-induced AHR dependent luciferase reporter gene assay was tested.

[2] = tested on: mPB-derived CD34+ cells; test: Genome-wide transcriptional profiling; type: cell-based, human; details: 24 hours
Description: The two genes that were the most highly repressed by treatment with Example 1 (cytochrome P450 1B1 [CYP1B1] and the aryl hydrocarbon receptor repressor [AHRR]) are transcriptionally regulated by the aryl hydrocarbon receptor (AHR). Therefore, compounds of the invention could be acting as an antagonist of AHR signaling.

[3] = target: T2, human AHR (Homo sapiens, UniProt P35869); test: cell-based; type: cell-based
T2 construct: endogenous in cells; host or cells: unnamed human cells carrying an AHR-dependent luciferase reporter
T2 sequence (P35869 11-848): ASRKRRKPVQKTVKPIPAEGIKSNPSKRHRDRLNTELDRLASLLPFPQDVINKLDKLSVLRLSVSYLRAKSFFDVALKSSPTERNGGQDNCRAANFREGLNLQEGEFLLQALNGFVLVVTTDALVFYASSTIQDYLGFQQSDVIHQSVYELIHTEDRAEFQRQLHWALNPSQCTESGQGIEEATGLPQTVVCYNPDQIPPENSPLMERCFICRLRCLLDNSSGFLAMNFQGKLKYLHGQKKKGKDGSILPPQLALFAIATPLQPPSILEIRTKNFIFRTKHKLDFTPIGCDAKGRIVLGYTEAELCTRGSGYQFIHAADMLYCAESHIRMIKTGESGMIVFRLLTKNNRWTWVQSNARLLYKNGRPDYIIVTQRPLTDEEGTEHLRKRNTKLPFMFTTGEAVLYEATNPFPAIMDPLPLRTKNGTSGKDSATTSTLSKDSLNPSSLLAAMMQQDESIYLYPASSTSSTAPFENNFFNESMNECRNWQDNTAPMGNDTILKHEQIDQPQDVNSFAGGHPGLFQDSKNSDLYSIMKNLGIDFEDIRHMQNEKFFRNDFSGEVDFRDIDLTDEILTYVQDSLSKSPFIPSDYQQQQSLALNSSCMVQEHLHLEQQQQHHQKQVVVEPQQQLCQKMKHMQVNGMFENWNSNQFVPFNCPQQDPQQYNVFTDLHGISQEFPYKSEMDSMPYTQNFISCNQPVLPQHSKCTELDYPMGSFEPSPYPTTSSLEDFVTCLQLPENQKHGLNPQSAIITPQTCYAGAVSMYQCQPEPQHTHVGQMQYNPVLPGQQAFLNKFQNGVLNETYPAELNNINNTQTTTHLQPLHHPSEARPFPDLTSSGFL
Method: as §1

`CC(C)n1cnc2c(NCCc3ccc(O)cc3)nc(-c3csc4ccccc34)nc21` [Example 1, 4-(2-(2-(benzo[b]thiophen-3-yl)-9-isopropyl-9H-purin-6-ylamino)ethyl)phenol] was tested, and the “agonist activity (AHR dependent transcription)” value [1] was “only weak agonist activity”, the “inhibition of dioxin induced transcription” value [1] was “no activity” and the “down-regulation of 5 genes (most repressed: CYP1B1, AHRR)” value ([2]; 1 μM) was greater than 70%. For the same molecule, the “up-regulation of 5 genes of >50,000 probe sets” value [2] was “greater than 3 fold”, the EC50 [3] was 127 nM and the “dioxin-induced AHR dependent transcription” value ([3]; 1 μM, cells expressing human AHR) was “completely abolished”. For the same molecule, the “agonist activity (induction of AHR dependent transcription)” value ([3]; human cells) was “failed to induce AHR dependent transcription”.
